Experimental data as given in publication PMC9822058, “In Vitro Evaluation of α-amylase and α-glucosidase Inhibition of 2,3-Epoxyprocyanidin C1 and Other Constituents from Pterocarpus erinaceus Poir” (Molecules, 2022).
Read-outs that look alike come from different tables or passages of the source.

Columns and labels:
[1] = target: α-glucosidase from Saccharomyces cerevisiae; test: α-glucosidase inhibitory assay (PNPG substrate); type: biochemical; conditions: for α-glucosidase (% inh. at 50 µg/mL): highest test concentration; for α-glucosidase inhibitory potential (in words): within the tested concentrations
Protocol: The α-glucosidase inhibitory activity was evaluated according to the method described previously. 50 µL of phosphate buffer (0.01 M pH 6.9), 10 µL of different concentrations of compound or extract solution, 50 µL of α-glucosidase from Saccharomyces cerevisiae in phosphate buffer (0.01 M pH 6.0) and PNPG (4-N-nitrophenyl-α-D-glucopyranoside) 25 µL in phosphate buffer (0.01 M pH 6.9) were mixed in a 96-well microplate. The solution was then incubated for 20 min at 37 °C.

[2] = target: α-amylase from Bacillus licheniformis (Bacillus licheniformis, UniProt P06278); test: biochemical; type: biochemical; conditions: for inhibition at 50 µg/mL: read-out: α-amylase (% inh. at 50 µg/mL); for α-amylase inhibitory potential (in words): within the tested concentrations
Sequence of α-amylase from Bacillus licheniformis (P06278 30-512): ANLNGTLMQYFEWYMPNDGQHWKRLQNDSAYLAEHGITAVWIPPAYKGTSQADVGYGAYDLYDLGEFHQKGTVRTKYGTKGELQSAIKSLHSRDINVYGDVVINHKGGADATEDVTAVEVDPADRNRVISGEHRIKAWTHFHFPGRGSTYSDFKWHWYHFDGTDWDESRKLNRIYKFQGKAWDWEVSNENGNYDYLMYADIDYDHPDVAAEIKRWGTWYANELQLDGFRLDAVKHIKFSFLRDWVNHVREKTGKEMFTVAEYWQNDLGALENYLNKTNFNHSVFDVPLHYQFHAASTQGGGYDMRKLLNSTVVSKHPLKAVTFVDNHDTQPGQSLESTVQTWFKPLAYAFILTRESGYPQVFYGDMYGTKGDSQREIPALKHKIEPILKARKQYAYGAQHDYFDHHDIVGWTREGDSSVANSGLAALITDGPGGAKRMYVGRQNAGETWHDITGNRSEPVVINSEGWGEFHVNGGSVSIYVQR
Protocol: The α-amylase inhibitory activity was evaluated by using the starch– iodine method with some modifications. The enzyme α-amylase from Bacillus licheniformis was used and enzyme solution was prepared with phosphate buffer (20 mM pH = 6.9 phosphate buffer prepared with 6 mM NaCl); then, 50 µL of α-amylase and 25 µL of different concentrations of compound or extract solutions were mixed in a 96-well microplate. The mixture was pre-incubated for 10 min at 37 °C; then, 50 µL of starch solution (0.05%) was added and incubated for 10 min at 37 °C. Following incubation, the reaction was completed by adding HCl (0.1 M, 25 µL) and Lugol (100 µL) solutions, and the absorbance was recorded at 565 nm.

[3] = system: STZ-induced diabetes; conditions: doses of 20 and 40 mg/kg; cited from earlier work
[4] = read-out: α-amylase IC50 (converted)

Structure (SMILES) | α-glucosidase IC50 [1] [µg/mL] | α-glucosidase (% inh. at 50 µg/mL) [1] [%] | inhibition at 50 µg/mL [2] [%] | IC50 [2, 4] [µM] | IC50 [2] [µM] | α-glucosidase inhibitory potential (in words) [1] | α-amylase inhibitory potential (in words) [2] | antidiabetic potential in STZ-induced diabetic rats [3]
COc1ccc2c(=O)c(-c3ccc(O)cc3)coc2c1 [compound 6, 7-methoxydaidzein] | 46.3 ± 0.2 | 51.8 ± 0.9 | 34.2 ± 0.5 | > 186 |  |  |  | 
COc1cc(O)c2c(=O)c(-c3ccc(O)cc3)coc2c1 [compound 5, 7-methoxygenistein] | 47.6 ± 0.9 | 50.6 ± 1.2 | 32.2 ± 1 |  | > 176 |  |  | 
COc1cc2c(=O)oc3c(OC)c(OC4OC(COC5OC(C)C(O)C(O)C5O)C(O)C(O)C4O)cc4c(=O)oc(c1OC)c2c34 (centres unmarked) [compound 10, 3,3′,4-Trimethoxy-4′-rutinosylellagic acid] | 45.0 ± 0.8 | 51.8 ± 0.9 | 45.4 ± 0.3 | > 76.6 |  |  |  | 
Oc1cc(O)c2c(c1)OC1(c3ccc(O)c(O)c3)OC1C2c1c(O)cc(O)c2c1OC(c1ccc(O)c(O)c1)C(O)C2c1c(O)cc(O)c2c1OC(c1ccc(O)c(O)c1)C(O)C2 (centres unmarked) [compound 1, 2,3-Epoxyprocyanidin C1] | 41.6 ± 1.0 | 53.4 ± 1.6 | 34.3 ± 0.7 | > 57.8 |  |  |  | 
C=C(C)[C@@H]1CC[C@]2(CO)CC[C@]3(C)[C@H](CC[C@@H]4[C@@]5(C)CC[C@H](O)C(C)(C)[C@@H]5CC[C@]43C)[C@@H]12 [compound 3, betulin] | >50 | 28.5 ± 0.3 | 19.3 ± 0.4 |  | > 113 | relatively low | relatively low | 
O=C(O)[C@H]1O[C@@H](Oc2cc(O)c3c(=O)cc(-c4ccc(O)cc4)oc3c2)[C@H](O)[C@@H](O)[C@@H]1O [compound 8, apigenin 7-O-glucoronide] | 40.9 ± 1.3 | 55.2 ± 1.1 | 50.9 ± 0.8 | 109 |  |  |  | 
COc1c(-c2ccc(O)c(O)c2)oc2cc(O)cc(O)c2c1=O [compound 7, 3-O-methyl quercetin] | 39.5 ± 1.2 | 54.0 ± 1.0 | 50.2 ± 2 | 152 |  |  |  | 
C[C@H]1O[C@H](O[C@H]2[C@H](O)[C@@H](O)[C@@H](O[C@H]3[C@H](O)[C@@H](O)C(O)O[C@@H]3CO)O[C@@H]2CO)[C@H](O)[C@@H](O)[C@@H]1N[C@H]1C=C(CO)[C@@H](O)[C@H](O)[C@H]1O (some centres unmarked) [Acarbose, reference compound] |  | 81.7 ± 0.8 | 72.5 ± 1.5 |  |  |  |  | 
O=C1C[C@@H](c2ccc(O)cc2)Oc2cc(O[C@@H]3O[C@H](CO)[C@@H](O)[C@H](O)[C@H]3O)cc(O)c21 [compound 9, naringenin 7-O-β-D-glucopyranoside] | 44.8 ± 0.6 | 53.7 ± 0.4 | 50.5 ± 1.2 |  |  |  |  | 
C[C@H]1C(=O)CC[C@@H]2[C@]1(C)CC[C@H]1[C@@]2(C)CC[C@@]2(C)[C@@H]3CC(C)(C)CC[C@]3(C)CC[C@]12C [compound 2, friedelin] | >50 | 32.1 ± 0.1 | 21.5 ± 0.6 |  | > 117 | relatively low | relatively low | antidiabetic potential
COc1cc2c(=O)oc3c(OC)c(OC4OC(COC5OC(C)C(OC(C)=O)C(OC(C)=O)C5OC(C)=O)C(OC(C)=O)C(OC(C)=O)C4OC(C)=O)cc4c(=O)oc(c1OC)c2c34 (centres unmarked) [compound 11, 3,3′,4-Trimethoxy-4′-hexaacetylrutinosylellagic acid] | 47.5 ± 0.4 | 50.7 ± 0.2 | 43.5 ± 0.6 | > 55.3 |  |  |  | 
COc1ccc(C(C)C(=O)c2ccc(O)cc2O)cc1 (centres unmarked) [compound 4, angolensin] | 43.4 ± 0.5 | 54.1 ± 1.3 | 33.7 ± 0.5 | > 184 |  |  |  | 
